According to patent US10752593B2, “Compounds for use as therapeutically active substances in the treatment of retinal diseases” (ENDOGENA THERAPEUTICS, INC., priority 2018, dated 2020):

System: retinal precursor cells
Experiment: Sphere passaging and high-throughput drug screening: proliferation of retinal precursor cells within one week
Type: cell-based, mammalian
Conditions: for increase of cell proliferation within one week: increase over control, retinal precursor cells; for Cell proliferation within one week [%]: retinal precursor cells grown one week with compound in 0.1% DMSO, control without compound = 100
Procedure: Kynurenic Acid (0.2 mg/mL), trypsin (1.33 mg/mL), and hyaluronidase (0.67 mg/mL) were weighed out and dissolved in high magnesium/low calcium artificial cerebral spinal fluid (aCSF) at 37° C. Fibroblast growth factor 2 (FGF2; 10 ng/mL) and heparin (2 μg/mL) were added to 100 mL of serum-free media (SFM). Ovomucoid trypsin inhibitor (1 mg/mL) was dissolved in warm SFM and sterile filtered ([…]).
A dissecting microscope, cold light source, and sterile surgical instruments were set up inside of a sterile biological safety cabinet (BSC). Mammalian eyes were enucleated and placed in a petri dish containing cold, sterile aCSF. Under the dissecting microscope, hair, connective tissue, and the dorsal and ventral oblique muscles were cleared from the scleral/corneal border with two sets of forceps. Next, curved or angled micro-dissecting scissors were used to cleave any remaining extraocular muscle tissue, the optic nerve, and cut the eyeball into symmetrical halves; beginning and finishing the cut from the hole left by the optic nerve. Using two sets of forceps to grasp the cornea, the two eye halves were peeled apart. The lens, optic nerve, and vitreous were separated from the eye shells and the eye shells were transferred into a new petri dish (also containing cold, sterile aCSF). To isolate the ciliary epithelium (CE), eye shells were oriented with the cornea on the right and retinal pigmented epithelium (RPE) on the left. A pair of straight forceps were used to pin down the eye shell on the RPE side while a scalpel blade was inserted between the CE and the iris, using pressure to slice the iris/cornea side off from the rest of the shell. Next, the scalpel was run along the border between the CE and the RPE to obtain the CE isolated as a thin strip of tissue. The CE strips were then transferred to a 35 mm dish containing 2 mL of dispase solution (Sigma; T1005) and incubated for 10 minutes at 37° C. Next, the strips were transferred from dispase into a 35 mm dish containing 2 mL of sterile filtered kynurenic acid, trypsin and hyaluronidase solution and incubated at 37° C. for 10 minutes. After incubation, the dish was returned to the dissecting scope, and the CE strips were pinned down with straight, non-serrated forceps, while non-serrated curved forceps were used to scrape the CE off from the underlying sclera. The bare scleral strips were then discarded, such that only the CE cells remained in the enzyme solution. Using a fire-polished, cotton-plugged glass pipette, the cells and enzyme solution were transferred to a 15 mL tube and triturated approximately 45 times to break apart the tissue. The 15 mL tube/cell suspension was centrifuged for 5 minutes at 1500 rpm. The supernatant was gently aspirated from the resulting pellet using a fire-polished, cotton-plugged glass pipette and 2 mL of trypsin inhibitor solution was added to the pellet. Using a small borehole, fire-polished, cotton-plugged glass pipette, the sample was triturated approximately 45 times until it was a single-cell suspension. The 15 mL tube/cell suspension was centrifuged for 5 minutes at 1500 rpm. The supernatant was gently aspirated from the resulting pellet and 1-2 mL of SFM with FGF2 and heparin (plating media) was added. The cells and media were mixed to ensure a uniform cell suspension and a 10 uL sample was taken and cell density was determined. The cells were then seeded and cultured at 10c/μL in culture-treated plates or flasks. After one week, roughly 1 in 500 cells proliferated to form free-floating, clonal spheres greater than 80 μm in diameter.
Human-derived spheres were passaged using the kynurenic acid, trypsin, hyaluronidase enzyme solution with the addition of collagenase I (0.5 mg/mL), collagenase II (0.5 mg/mL) and elastase (0.1 mg/mL). Mouse-derived spheres were passaged using hyaluronidase (0.67 mg/mL), collagenase I (0.5 mg/mL), and collagenase II (0.5 mg/mL) dissolved in Accustase solution (Sigma; SCR005). […]

[1] = results table after the methods

Row | SMILES | increase of cell proliferation within one week [%] | Cell proliferation within one week [%] [1] [%] | Cell proliferation within one week [%] (concentration not given)
1 | COc1cc(NC(=O)Cc2ccccc2Cl)ccc1-c1ccncc1 [Compound E0027, 2-(2-chlorophenyl)-N-(3-methoxy-4-(pyridin-4-yl)phenyl)acetamide] | 48 | 148 | –
2 | COc1cccc(CC(=O)Nc2ccc(-c3cnco3)c(Cl)c2)c1 [Compound E0146, N-(3-chloro-4-(oxazol-5-yl)phenyl)-2-(3-methoxyphenyl)acetamide] | 103 | 203 | 203
3 | O=C(Cc1ccccc1C(F)(F)F)Nc1ccc(-c2cnco2)c(Cl)c1 [Compound E0147, N-(3-chloro-4-(oxazol-5-yl)phenyl)-2-(2-(trifluoromethyl)phenyl)acetamide] | 42 | 142 | 142
4 | O=C(Cc1cccc(Br)c1)Nc1ccc(-c2cnco2)c(Cl)c1 [Compound E0148, 2-(3-bromophenyl)-N-(3-chloro-4-(oxazol-5-yl)phenyl)acetamide] | 43 | 143 | 143
5 | O=C(Cc1ccc(F)cc1F)Nc1ccc(-c2cnco2)c(Cl)c1 [Compound E0149, N-(3-chloro-4-(oxazol-5-yl)phenyl)-2-(2,4-difluorophenyl)acetamide] | 57 | 157 | 157
6 | O=C(Cc1cc(F)ccc1Cl)Nc1ccc(-c2cnco2)c(Cl)c1 [Compound E1017, N-(3-chloro-4-(oxazol-5-yl)phenyl)-2-(2-chloro-5-fluorophenyl)acetamide] | – | 121 | 121
7 | O=C(Cc1cccc(C(F)(F)F)c1)Nc1ccc(-c2cnco2)c(Cl)c1 [Compound E1018, N-(3-chloro-4-(oxazol-5-yl)phenyl)-2-(3-(trifluoromethyl)phenyl)acetamide] | – | 134 | 134
8 | O=C(Cc1ccc(Cl)cc1)Nc1ccc(-c2cnco2)c(Cl)c1 [Compound E1019, N-(3-chloro-4-(oxazol-5-yl)phenyl)-2-(4-chlorophenyl)acetamide] | – | 133 | 133
9 | O=C(Cc1ccccc1OC(F)F)Nc1ccc(-c2cnco2)c(Cl)c1 [Compound E1020, N-(3-chloro-4-(oxazol-5-yl)phenyl)-2-(2-(difluoromethoxy)phenyl)acetamide] | – | 135 | 135
10 | O=C(Cc1ccccc1)Nc1ccc(-c2cnco2)c(Cl)c1 [Compound E1021, N-(3-chloro-4-(oxazol-5-yl)phenyl)-2-phenylacetamide] | 49 | 149 | 149
11 | O=C(Cc1ccccc1Cl)Nc1ccc(-c2cnco2)c(Cl)c1 [Compound E1022, N-(3-chloro-4-(oxazol-5-yl)phenyl)-2-(2-chlorophenyl)acetamide] | 58 | 158 | 158
12 | COc1ccccc1CC(=O)Nc1ccc(-c2cnco2)c(Cl)c1 [Compound E1024, N-(3-chloro-4-(oxazol-5-yl)phenyl)-2-(2-methoxyphenyl)acetamide] | – | 128 | 128
13 | COc1ccccc1CC(=O)Nc1ccc(-c2cnco2)c(F)c1 [Compound E1025, N-(3-fluoro-4-(oxazol-5-yl)phenyl)-2-(2-methoxyphenyl)acetamide] | – | 106 | 106
14 | O=C(Cc1cccc(OC(F)F)c1)Nc1ccc(-c2cnco2)c(Cl)c1 [Compound E1026, N-(3-chloro-4-(oxazol-5-yl)phenyl)-2-(3-(difluoromethoxy)phenyl)acetamide] | – | 122 | 122
15 | O=C(Cc1cccc(OC(F)F)c1)Nc1ccc(-c2cnco2)c(F)c1 [Compound E1027, 2-(3-(difluoromethoxy)phenyl)-N-(3-fluoro-4-(oxazol-5-yl)phenyl)acetamide] | – | 120 | 120
16 | O=C(Cc1ccccc1OC(F)F)Nc1ccc(-c2cnco2)c(F)c1 [Compound E1028, 2-(2-(difluoromethoxy)phenyl)-N-(3-fluoro-4-(oxazol-5-yl)phenyl)acetamide] | – | 119 | 119
17 | O=C(Cc1cc(F)ccc1Cl)Nc1ccc(-c2cnco2)c(F)c1 [Compound E1030, 2-(2-chloro-5-fluorophenyl)-N-(3-fluoro-4-(oxazol-5-yl)phenyl)acetamide] | – | 133 | 133
18 | O=C(Cc1ccccc1)Nc1ccc(-c2cnco2)c(F)c1 [Compound E1031, N-(3-fluoro-4-(oxazol-5-yl)phenyl)-2-phenylacetamide] | – | 123 | 123
19 | O=C(Cc1ccccc1Cl)Nc1ccc(-c2cnco2)c(F)c1 [Compound E1032, 2-(2-chlorophenyl)-N-(3-fluoro-4-(oxazol-5-yl)phenyl)acetamide] | – | 137 | 137
20 | O=C(Cc1ccc(Cl)cc1)Nc1ccc(-c2cnco2)c(F)c1 [Compound E1039, 2-(4-chlorophenyl)-N-(3-fluoro-4-(oxazol-5-yl)phenyl)acetamide] | – | 107 | 107
21 | COc1cccc(CC(=O)Nc2ccc(-c3cnco3)c(F)c2)c1 [Compound E1042, N-(3-fluoro-4-(oxazol-5-yl)phenyl)-2-(3-methoxyphenyl)acetamide] | – | 127 | 127
22 | O=C(Cc1ccc(F)cc1F)Nc1ccc(-c2cnco2)c(F)c1 [Compound E1045, 2-(2,4-difluorophenyl)-N-(3-fluoro-4-(oxazol-5-yl)phenyl)acetamide] | – | 140 | 140
23 | O=C(Cc1cccc(C(F)(F)F)c1)Nc1ccc(-c2cnco2)c(F)c1 [Compound E1048, N-(3-fluoro-4-(oxazol-5-yl)phenyl)-2-(3-(trifluoromethyl)phenyl)acetamide] | – | 105 | 105
24 | O=C(Cc1ccccc1C(F)(F)F)Nc1ccc(-c2cnco2)c(F)c1 [Compound E1051, N-(3-fluoro-4-(oxazol-5-yl)phenyl)-2-(2-(trifluoromethyl)phenyl)acetamide] | – | 118 | 118
25 | O=C(Cc1ccccc1Cl)Nc1ccc(-c2ccncc2)cc1 [Compound E1060, 2-(2-chlorophenyl)-N-(4-(pyridin-4-yl)phenyl)acetamide] | 44 | 144 | –
26 | COc1cc(NC(=O)Cc2cc(F)ccc2Cl)ccc1-c1ccncc1 [Compound E1062, 2-(2-chloro-5-fluorophenyl)-N-(3-methoxy-4-(pyridin-4-yl)phenyl)acetamide] | – | 134 | –
27 | COc1cc(NC(=O)Cc2ccccc2)ccc1-c1ccncc1 [Compound E1063, N-(3-methoxy-4-(pyridin-4-yl)phenyl)-2-phenylacetamide] | – | 130 | –
28 | COc1cc(NC(=O)Cc2cccc(OC(F)F)c2)ccc1-c1ccncc1 [Compound E1066, 2-(3-(difluoromethoxy)phenyl)-N-(3-methoxy-4-(pyridin-4-yl)phenyl)acetamide] | – | 108 | –
